Source: patent US6503938B1, “2-phenylindoles as antiestrogenic pharmaceutical agents” (Schering Aktiengesellschaft, priority 1994, dated 2003)
Each block holds one molecule with its values, some of them ahead of it.

Key:
[1] = biological target: T1, estrogen receptor consisting of calf uterus cytosol (Bos taurus, UniProt P49884); experiment: Relative binding affinity (RBA) for the estrogen receptor, displacement of 3H-17β-estradiol; settings: RBA(17β-estradiol) = 100
T1 construct: for the estrogen receptor consisting of calf uteri; from tissue; host or cells: calf uterus
T1 sequence (P49884 1-596): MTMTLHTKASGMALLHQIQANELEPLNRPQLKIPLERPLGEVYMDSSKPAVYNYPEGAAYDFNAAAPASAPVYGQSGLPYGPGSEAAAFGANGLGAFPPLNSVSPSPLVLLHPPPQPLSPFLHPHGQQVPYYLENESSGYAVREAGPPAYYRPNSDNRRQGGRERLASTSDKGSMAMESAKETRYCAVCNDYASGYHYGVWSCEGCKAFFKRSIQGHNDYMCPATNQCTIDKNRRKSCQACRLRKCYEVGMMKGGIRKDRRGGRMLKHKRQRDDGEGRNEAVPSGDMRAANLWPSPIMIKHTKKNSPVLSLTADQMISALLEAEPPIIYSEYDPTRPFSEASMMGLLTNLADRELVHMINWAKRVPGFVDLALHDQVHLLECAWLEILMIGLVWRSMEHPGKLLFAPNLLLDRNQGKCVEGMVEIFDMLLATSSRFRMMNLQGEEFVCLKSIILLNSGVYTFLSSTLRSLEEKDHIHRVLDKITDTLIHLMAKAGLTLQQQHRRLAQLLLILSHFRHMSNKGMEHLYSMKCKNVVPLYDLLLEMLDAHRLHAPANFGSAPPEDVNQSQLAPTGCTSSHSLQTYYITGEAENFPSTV

[2] = test system: hormone-sensitive human MCF-7 breast cancer cells; experiment: Cytostatic activity on hormone-sensitive human MCF-7 breast cancer cells (T/C of optical densities); format: cell-based; settings: mean of 16 determinations ± SD
[3] = test system: uterus of infantile mice; experiment: Uterus weight test in infantile mice (estrogenic and antiestrogenic action); format: in vivo; settings: for estrogenic action on the uterus of infantile mice: s.c. in olive oil on three successive days, uterus dry weight/body weight 24 hours after the last injection
Experimental: Compound no. […] For compounds nos. […] The dose/animal was administered s.c., dissolved in olive oil, on three successive days. The dry weight of the uterus [mg]/body weight [g]×100 was determined 24 hours after the last injection. This test is described in detail in Cancer Treatment Reviews, 1984, 11, 147 and J. Med. Chem., 1984, 27, 1439.

[4] = substance concentration 1 · 10^−6 M in the incubation medium
[5] = substance concentration 1 · 10^−7 M in the incubation medium
[6] = substance concentration 1 · 10^−8 M in the incubation medium
[7] = substance concentration 1 · 10^−9 M in the incubation medium

Molecule: CCCCCS(=O)(=O)CCCCOc1ccc(Cn2c(-c3ccc(O)cc3)c(C)c3cc(O)ccc32)cc1 [Compound 15, 5-hydroxy-2-(4-hydroxyphenyl)-3-methyl-1-[4-[4-(pentylsulfonyl)butoxy]-benzyl]-indole]
RBA(*) relative binding affinity for the estrogen receptor [1]: 9.5

Molecule: CCCCCSCCCCCCCCCCn1c2c(c3cc(O)ccc31)CCc1cc(O)ccc1-2 [Compound 16, 6,11-dihydro-3,8-dihydroxy-5H-1-[10-(pentylthio)-decyl]benzo[a]carbazole]
RBA(*) relative binding affinity for the estrogen receptor [1]: 0.13
T/C [%] ([2]; substance concentration 1 · 10^−5 M in the incubation medium): −38.6 ±13.9%
T/C [%] [2, 4]: −7.8 ± 8.9%
T/C [%] [2, 5]: −18.5 ± 15.4%
T/C [%] ([2]; substance concentration 6 · 10^−6 M in the incubation medium): −31.1 ± 10.0%

Molecule: CCCCCSCCCCCCCCCCn1c(-c2ccc(O)cc2)c(C)c2cc(O)ccc21 [Compound 1, 5-Hydroxy-2-(4-hydroxyphenyl)-3-methyl-1-[10-(pentylthio)-decyl]-indole]
RBA(*) relative binding affinity for the estrogen receptor [1]: 0.3

Molecule: CCCS(=O)(=O)CCCCCCCCCCCCn1c(-c2ccc(O)cc2)c(C)c2cc(O)ccc21 [Compound 4, 5-hydroxy-2-(4-hydroxyphenyl)-3-methyl-1-[12-(propylsulfonyl)-dodecyl]-indole]
RBA(*) relative binding affinity for the estrogen receptor [1]: 1.9

Molecule: 5-hydroxy-2-(4-hydroxyphenyl)-3-methyl-1-[12-[2-(N-methyl-imidazolyl)thio]-decyl]-indole [Compound 7]
RBA(*) relative binding affinity for the estrogen receptor [1]: 2.0
T/C [%] [2, 4]: 36.8 ± 8.7%
T/C [%] [2, 5]: 60.4 ± 9.1%
T/C [%] [2, 6]: 83.8 ± 11.3%

Molecule: CCC[S+]([O-])CCCCCCCCCCCCn1c(-c2ccc(O)cc2)c(C)c2cc(O)ccc21 (stereo not shown) [Compound 5, 5-hydroxy-2-(4-hydroxyphenyl)-3-methyl-1-[12-(propylsulfinyl)-dodecyl]-indole]
RBA(*) relative binding affinity for the estrogen receptor [1]: 2.9

Molecule: CCCS(=O)(=O)N(C)CCCCCCCCCCCn1c(-c2ccc(O)cc2)c(C)c2cc(O)ccc21 [Compound 8, 5-hydroxy-2-(4-hydroxyphenyl)-3-methyl-1-[11-(N-methyl-propylsulfonamido)-undecyl]-indole]
RBA(*) relative binding affinity for the estrogen receptor [1]: 1.8

Molecule: CCCCCS(=O)(=O)CCCCCCCCCCn1c(-c2ccc(O)cc2)c(C)c2cc(O)ccc21 [Compound 3, 5-Hydroxy-2-(4-hydroxyphenyl)-3-methyl-1-[10-(pentylsulfonyl)-decyl]-indole]
action of estrogen (0.4 μg/animal) on the uterus (antiestrogenic effect) ([3]; 10 mg/kg s.c., three successive days, with estrogen 0.4 μg/animal): completely cancelled out
dry weight of the uterus compared to control level ([3]; dose of 35 mg/kg s.c., three successive days): still lies below the control level
estrogenic action on the uterus of infantile mice [3]: does not show any estrogenic action

Molecule: Cc1c(-c2ccc(O)cc2)n(CCCCCCCCCCCN(C)S(=O)(=O)Cc2ccccc2)c2ccc(O)cc12 [Compound 9, 5-hydroxy-2-(4-hydroxyphenyl)-3-methyl-1-[11-(N-methyl-phenylmethanesulfonamido)-undecyl]-indole]
RBA(*) relative binding affinity for the estrogen receptor [1]: 1.0

Molecule: Cc1c(-c2ccc(O)cc2)n(CCCCCCCCSc2ccccn2)c2ccc(O)cc12 [Compound 6, 5-hydroxy-2-(4-hydroxyphenyl)-3-methyl-1-[8-(2-pyridinylthio)-octyl]-indole]
melting point: 56 to 60 °C
RBA(*) relative binding affinity for the estrogen receptor [1]: 1.4

Molecule: CCCCC[S+]([O-])CCCCCCCCCCn1c(-c2ccc(O)cc2)c(C)c2cc(O)ccc21 (stereo not shown) [Compound 2, 5-Hydroxy-2-(4-hydroxyphenyl)-3-methyl-1-[10-(pentylsulfinyl)-decyl]-indole]
RBA(*) relative binding affinity for the estrogen receptor [1]: 3.4

More lines, main results first:

RBA(*) relative binding affinity for the estrogen receptor [1]: 1.3
Molecule: CCCCN(C)C(=O)CCCSCCCCCCn1c(-c2ccc(O)cc2)c(C)c2cc(O)ccc21 [Compound 13, 1-{6-[3′-(n-butyl-methylcarbamoyl)-propylthio]-hexyl}-5-hydroxy-2-(4-hydroxyphenyl)-3-methylindole]
T/C [%] [2, 4]: 15.8 ± 6.9%
T/C [%] [2, 5]: 40.2 ± 11.4%
T/C [%] [2, 6]: 92.9 ± 15.2%
T/C [%] [2, 7]: 85.6 ± 16.0%

RBA(*) relative binding affinity for the estrogen receptor [1]: 1.7
Molecule: Cc1c(-c2ccc(O)cc2)n(CCCCCCCCCCSCC(=O)N(C)C(C)C)c2ccc(O)cc12 [Compound 14, 5-hydroxy-2-(4-hydroxyphenyl)-3-methyl-1-[10-[(methyl-iso-propylcarbamoyl)-methylthio]-decyl]-indole]

RBA(*) relative binding affinity for the estrogen receptor [1]: 1.0
Molecule: Cc1c(-c2ccc(O)cc2)n(CCCCCCCCCS(=O)(=O)CCCC(F)(F)C(F)(F)F)c2ccc(O)cc12 [Compound 12, 5-hydroxy-2-(4-hydroxyphenyl)-3-methyl-1-[9-(4,4,5,5,5-pentafluoropentylsulfonyl)-nonyl]-indole]

melting point: 88 °C
Molecule: CNC(=O)CCCCCCCCCCn1c(-c2ccc(OC)cc2)c(C)c2cc(OC)ccc21 [Example 7, 5-Methoxy-2-(4-methoxyphenyl)-3-methyl-1-[10-(N-methylcarbamoyl)-decyl]-indole]

RBA(*) relative binding affinity for the estrogen receptor [1]: 2.4
Molecule: Cc1c(-c2ccc(O)cc2)n(CCCCCCCCC[S+]([O-])CCCC(F)(F)C(F)(F)F)c2ccc(O)cc12 (stereo not shown) [Compound 11, 5-hydroxy-2-(4-hydroxyphenyl)-3-methyl-1-[9-(4,4,5,5,5-pentafluoropentylsulfinyl)-nonyl]-indole]
estrogenic action on the uterus of infantile mice [3]: virtually identical results

RBA(*) relative binding affinity for the estrogen receptor [1]: 2.6
Molecule: CCCCN(C)S(=O)(=O)CCCCCCCCCCn1c(-c2ccc(O)cc2)c(C)c2cc(O)ccc21 [Compound 10, 1-[10-(n-butyl-methylsulfamoyl)-decyl]-5-hydroxy-(4-hydroxyphenyl)-3-methylindole]
T/C [%] [2, 4]: −12.3 ± 6.3%
T/C [%] [2, 5]: −13.4 ± 4.5%
T/C [%] [2, 6]: 0.5 ± 6.3%
T/C [%] [2, 7]: 86.3 ± 18.0%

melting point: 75 to 77 °C
Molecule: COc1ccc(-c2c(C)c3cc(OC)ccc3n2CCCCCCCCSc2ccccn2)cc1 [Example 6, 5-Methoxy-2-(4-methoxyphenyl)-3-methyl-1-[8-(2-pyridinylthio)-octyl]-indole]
